{"source": "patent US9359308B2", "about": "“Pyrazine kinase inhibitors” (Portola Pharmaceuticals, Inc., priority 2011, dated 2016)"}
{"molecular_target": "T1, full length active recombinant SYK enzyme (Homo sapiens, UniProt P43405)", "T1 construct": "full length active recombinant SYK enzyme (Millipore, Calif.); purchased Millipore", "assay": "Inhibition of Syk tyrosine phosphorylation activity (LANCE TR-FRET kinase assay)", "type": "biochemical", "conditions": "activity in the Syk assays, class symbols", "procedure,_shortened": "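1 nM full-length active recombinant SYK phosphorylated 550 nM biotin-DEEDYESP-OH with 100 μM ATP in 50 mM Tris pH 7.5, 5 mM MgCl2, 1 mM DTT and 3% DMSO for 1 h at room temperature. After EDTA quench, Eu-anti-phosphotyrosine/SA-APC TR-FRET was read after 1 h. IC50s came from non-linear regression.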", "units": {"IC50": "nM"}}
{"smiles": "CC(C)[C@@H](Nc1cnc(C(N)=O)c(Nc2cccc(CN3CCOCC3)c2)n1)C(N)=O", "note": "[Example 144, (R)-5-(1-amino-3-methyl-1-oxobutan-2-ylamino)-3-(3-(morpholinomethyl)phenylamino)pyrazine-2-carboxamide]", "IC50": "100 to 1000"}
{"smiles": "CS(=O)(=O)Cc1ccc(Nc2nc(N[C@@H]3CCCC[C@@H]3N)cnc2C(N)=O)cc1", "note": "[Example 145, 5-((1R,2S)-2-aminocyclohexylamino)-3-(4-(methylsulfonylmethyl)phenylamino)pyrazine-2-carboxamide]", "IC50": "10 to 100"}
{"smiles": "CC(C)[C@@H](Nc1cnc(C(N)=O)c(Nc2ccc3c(c2)OCO3)n1)C(N)=O", "note": "[Example 146, (R)-5-(1-amino-3-methyl-1-oxobutan-2-ylamino)-3-(benzo[d][1,3]dioxol-5-ylamino)pyrazine-2-carboxamide]", "IC50": "100 to 1000"}
{"smiles": "CC(C)[C@@H](Nc1cnc(C(N)=O)c(Nc2cccc(OC(F)(F)F)c2)n1)C(N)=O", "note": "[Example 147, (R)-5-(1-amino-3-methyl-1-oxobutan-2-ylamino)-3-(3-(trifluoromethoxy)phenylamino)pyrazine-2-carboxamide]", "IC50": "100 to 1000"}
{"smiles": "CC(C)[C@@H](Nc1cnc(C(N)=O)c(Nc2ccc(CN3CCOCC3)cc2)n1)C(N)=O", "note": "[Example 148, (R)-5-(1-amino-3-methyl-1-oxobutan-2-ylamino)-3-(4-(morpholinomethyl)phenylamino)pyrazine-2-carboxamide]", "IC50": "100 to 1000"}
{"smiles": "CC(C)[C@@H](Nc1cnc(C(N)=O)c(Nc2ccc(-n3ccnc3)cc2)n1)C(N)=O", "note": "[Example 149, (R)-3-(4-(1H-imidazol-1-yl)phenylamino)-5-(1-amino-3-methyl-1-oxobutan-2-ylamino)pyrazine-2-carboxamide]", "IC50": "10 to 100"}
{"smiles": "CC(C)[C@@H](Nc1cnc(C(N)=O)c(Nc2ccc(CS(C)(=O)=O)cc2)n1)C(N)=O", "note": "[Example 150, (R)-5-(1-amino-3-methyl-1-oxobutan-2-ylamino)-3-(4-(methylsulfonylmethyl)phenylamino)pyrazine-2-carboxamide]", "IC50": "100 to 1000"}
{"smiles": "CC[C@@H](Nc1cnc(C(N)=O)c(Nc2ccc(OC)c(OC)c2)n1)C(N)=O", "note": "[Example 151, (R)-5-(1-amino-1-oxobutan-2-ylamino)-3-(3,4-dimethoxyphenylamino)pyrazine-2-carboxamide]", "IC50": "10 to 100"}
{"smiles": "CC[C@@H](Nc1cnc(C(N)=O)c(Nc2ccc(C)cc2)n1)C(N)=O", "note": "[Example 152, (R)-5-(1-amino-1-oxobutan-2-ylamino)-3-(p-tolylamino)pyrazine-2-carboxamide]", "IC50": "10 to 100"}
{"smiles": "CS(=O)(=O)c1ccc(Nc2nc(N[C@@H]3CCCC[C@@H]3N)cnc2C(N)=O)cc1", "note": "[Example 153, 5-((1R,2S)-2-aminocyclohexylamino)-3-(4-(methylsulfonyl)phenylamino)pyrazine-2-carboxamide]", "IC50": "1 to 10"}
{"smiles": "CS(=O)(=O)c1cccc(Nc2nc(N[C@@H]3CCCC[C@@H]3N)cnc2C(N)=O)c1", "note": "[Example 154, 5-((1R,2S)-2-aminocyclohexylamino)-3-(3-(methylsulfonyl)phenylamino)pyrazine-2-carboxamide]", "IC50": "10 to 100"}
{"smiles": "Cc1ccc(Nc2nc(N[C@@H](C(N)=O)C(C)C)cnc2C(N)=O)cc1", "note": "[Example 155, (R)-5-(1-amino-3-methyl-1-oxobutan-2-ylamino)-3-(p-tolylamino)pyrazine-2-carboxamide]", "IC50": "10 to 100"}
{"smiles": "CC(C)[C@@H](Nc1cnc(C(N)=O)c(Nc2ccc(S(=O)(=O)N(C)C)cc2)n1)C(N)=O", "note": "[Example 156, (R)-5-(1-amino-3-methyl-1-oxobutan-2-ylamino)-3-(4-(N,N-dimethylsulfamoyl)phenylamino)pyrazine-2-carboxamide]", "IC50": "10 to 100"}
{"smiles": "CC(=O)N(C)c1ccc(Nc2nc(N[C@@H](C(N)=O)C(C)C)cnc2C(N)=O)cc1", "note": "[Example 157, (R)-5-(1-amino-3-methyl-1-oxobutan-2-ylamino)-3-(4-(N-methylacetamido)phenylamino)pyrazine-2-carboxamide]", "IC50": "100 to 1000"}
{"smiles": "CC[C@@H](Nc1cnc(C(N)=O)c(Nc2cc(OC)cc(OC)c2)n1)C(N)=O", "note": "[Example 158, (R)-5-(1-amino-1-oxobutan-2-ylamino)-3-(3,5-dimethoxyphenylamino)pyrazine-2-carboxamide]", "IC50": "10 to 100"}
{"smiles": "CC[C@@H](Nc1cnc(C(N)=O)c(Nc2ccc(S(C)(=O)=O)cc2)n1)C(N)=O", "note": "[Example 159, (R)-5-(1-amino-1-oxobutan-2-ylamino)-3-(4-(methylsulfonyl)phenylamino)pyrazine-2-carboxamide]", "IC50": "10 to 100"}
{"smiles": "CC(C)[C@@H](Nc1cnc(C(N)=O)c(Nc2ccc(S(C)(=O)=O)cc2)n1)C(N)=O", "note": "[Example 160, (R)-5-(1-amino-3-methyl-1-oxobutan-2-ylamino)-3-(4-(methylsulfonyl)phenylamino)pyrazine-2-carboxamide]", "IC50": "10 to 100"}
{"smiles": "CC[C@@H](Nc1cnc(C(N)=O)c(Nc2ccc(N(C)C(C)=O)cc2)n1)C(N)=O", "note": "[Example 161, (R)-5-(1-amino-1-oxobutan-2-ylamino)-3-(4-(N-methylacetamido)phenylamino)pyrazine-2-carboxamide]", "IC50": "100 to 1000"}
{"smiles": "Cc1ccc(Nc2nc(N[C@@H](C(N)=O)C(C)C)cnc2C(N)=O)cc1C", "note": "[Example 162, (R)-5-(1-amino-3-methyl-1-oxobutan-2-ylamino)-3-(3,4-dimethylphenylamino)pyrazine-2-carboxamide]", "IC50": "10 to 100"}
{"smiles": "Cc1cc(C)cc(Nc2nc(N[C@@H](C(N)=O)C(C)C)cnc2C(N)=O)c1", "note": "[Example 163, (R)-5-(1-amino-3-methyl-1-oxobutan-2-ylamino)-3-(3,5-dimethylphenylamino)pyrazine-2-carboxamide]", "IC50": "10 to 100"}
{"smiles": "COc1cc(Nc2nc(N[C@H](CC3CC3)C(N)=O)cnc2C(N)=O)cc(OC)c1", "note": "[Example 164, (R)-5-(1-amino-3-cyclopropyl-1-oxopropan-2-ylamino)-3-(3,5-dimethoxyphenylamino)pyrazine-2-carboxamide]", "IC50": "1 to 10"}
{"smiles": "COc1ccc(Nc2nc(N[C@@H]3CCCC(F)(F)[C@@H]3N)cnc2C(N)=O)cc1OC", "note": "[Example 165, 5-((1R,2R)-2-amino-3,3-difluorocyclohexylamino)-3-(3,4-dimethoxyphenylamino)pyrazine-2-carboxamide]", "IC50": "1 to 10"}
{"smiles": "CS(=O)(=O)c1ccc(Nc2nc(N[C@H](CC3CC3)C(N)=O)cnc2C(N)=O)cc1", "note": "[Example 166, (R)-5-(1-amino-3-cyclopropyl-1-oxopropan-2-ylamino)-3-(4-(methylsulfonyl)phenylamino)pyrazine-2-carboxamide]", "IC50": "1 to 10"}
{"smiles": "CS(=O)(=O)c1ccc(Nc2nc(N[C@@H]3CCCC(F)(F)[C@@H]3N)cnc2C(N)=O)cc1", "note": "[Example 167, 5-((1R,2R)-2-amino-3,3-difluorocyclohexylamino)-3-(4-(methylsulfonyl)phenylamino)pyrazine-2-carboxamide]", "IC50": "10 to 100"}
{"smiles": "COc1cc(Nc2nc(N[C@@H]3CCCC(F)(F)[C@@H]3N)cnc2C(N)=O)cc(OC)c1", "note": "[Example 168, 5-((1R,2R)-2-amino-3,3-difluorocyclohexylamino)-3-(3,5-dimethoxyphenylamino)pyrazine-2-carboxamide]", "IC50": "10 to 100"}
{"smiles": "Cc1ccc(Nc2nc(N[C@@H]3CCCC(F)(F)[C@@H]3N)cnc2C(N)=O)cc1C", "note": "[Example 169, 5-((1R,2R)-2-amino-3,3-difluorocyclohexylamino)-3-(3,4-dimethylphenylamino)pyrazine-2-carboxamide]", "IC50": "1 to 10"}
